Consider 13 molecules from patent US11524938B2, “Aromatic sulfonamide derivatives” (Bayer Pharma Aktiengesellschaft, priority 2016, dated 2022).

In the experiment the target is T1, human P2X4 (Homo sapiens, UniProt Q99571).
T1 sequence (Q99571 1-388): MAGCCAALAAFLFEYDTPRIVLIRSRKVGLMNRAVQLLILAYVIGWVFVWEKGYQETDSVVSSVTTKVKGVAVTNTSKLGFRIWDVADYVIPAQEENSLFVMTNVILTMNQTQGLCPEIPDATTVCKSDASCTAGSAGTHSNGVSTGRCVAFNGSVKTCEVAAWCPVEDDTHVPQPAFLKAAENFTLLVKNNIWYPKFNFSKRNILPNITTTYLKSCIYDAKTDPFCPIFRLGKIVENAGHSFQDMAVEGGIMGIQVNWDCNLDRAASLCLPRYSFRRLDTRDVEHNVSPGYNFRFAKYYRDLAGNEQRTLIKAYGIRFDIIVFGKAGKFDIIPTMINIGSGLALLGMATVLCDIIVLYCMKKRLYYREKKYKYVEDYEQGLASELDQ
Briefly: Human P2X4 HEK Cell FLIPR Assay. The format is cell-based. The following applies: agonist Bz-ATP at EC80; for Emax: HEK293, HEK293 cells, percentage of maximal inhibition, read-out: Human P2X4 HEK Cells (FLIPR Assay) avg Efficacy [%]; for IC50: HEK293 cells, individual values listed where some fall outside detection range. The method in brief: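 HEK293 cells stably expressing human P2X4, Fluo8-AM loaded 30 min at 37° C, then compound 30 min at room temperature (0.5% DMSO, pH 7.4 buffer with 1.8 mM CaCl2). Bz-ATP at its daily-determined EC80 added; calcium fluorescence read over 120 sec; IC50 from peak RFU normalized to agonist control, triplicates.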

What is called IC50 is the midpoint of a concentration-inhibition curve. Lower therefore signals greater potency.

For `Cc1ccc(F)c(CC(=O)Nc2ccc(-n3cc(C#N)cn3)c(S(N)(=O)=O)c2)c1Cl` [Example 207, 2-(2-Chloro-6-fluoro-3-methylphenyl)-N-[4-(4-cyano-1H-pyrazol-1-yl)-3-sulfamoylphenyl]acetamide], the Emax was determined as 98% and the IC50 was determined as 12 nM.
The like results for `N#Cc1cnn(-c2ccc(NC(=O)Cc3c(F)ccc(F)c3Cl)cc2S(N)(=O)=O)c1` [Example 208, 2-(2-Chloro-3,6-difluorophenyl)-N-[4-(4-cyano-1H-pyrazol-1-yl)-3-sulfamoylphenyl]-acetamide] were, in that order, 91% and 33 nM.
The like results for `Cc1ccc(Cl)c(CC(=O)Nc2ccc(-n3cc(C#N)cn3)c(S(N)(=O)=O)c2)c1` [Example 209, 2-(2-Chloro-5-methylphenyl)-N-[4-(4-cyano-1H-pyrazol-1-yl)-3-sulfamoylphenyl]-acetamide] were, in that order, 91% and 37 nM.
Regarding `COc1ccc(CC(=O)Nc2ccc(-n3cc(C#N)cn3)c(S(N)(=O)=O)c2)c(Cl)c1` [Example 210, 2-(2-Chloro-4-methoxyphenyl)-N-[4-(4-cyano-1H-pyrazol-1-yl)-3-sulfamoylphenyl]-acetamide], the Emax turned out to be 76% and the half-inhibitory concentration (IC50) amounted to 116 nM.
In the case of `N#Cc1cnn(-c2ccc(NC(=O)Cc3cc(Cl)ccc3Cl)cc2S(N)(=O)=O)c1` [Example 211, N-[4-(4-Cyano-1H-pyrazol-1-yl)-3-sulfamoylphenyl]-2-(2,5-dichlorophenyl)acetamide], the Emax worked out at 94% and the concentration for half-maximal inhibition (IC50) was 75 nM.
The like results for `COc1ccc(Cl)cc1CC(=O)Nc1ccc(-n2cc(C#N)cn2)c(S(N)(=O)=O)c1` [Example 212, 2-(5-Chloro-2-methoxyphenyl)-N-[4-(4-cyano-1H-pyrazol-1-yl)-3-sulfamoylphenyl]-acetamide] were, in that order, 86% and 149 nM.
For `CC(C)c1ccccc1CC(=O)Nc1ccc(-n2cc(C#N)cn2)c(S(N)(=O)=O)c1` [Example 213, N-[4-(4-Cyano-1H-pyrazol-1-yl)-3-sulfamoylphenyl]-2-[2-(propan-2-yl)phenyl]-acetamide], in that order: 93% and 47 nM.
The like results for `N#Cc1cnn(-c2ccc(NC(=O)Cc3cc(F)ccc3Cl)cc2S(N)(=O)=O)c1` [Example 214, 2-(2-Chloro-5-fluorophenyl)-N-[4-(4-cyano-1H-pyrazol-1-yl)-3-sulfamoylphenyl]-acetamide] were, in that order, 86% and 36 nM.
Regarding `N#Cc1cnn(-c2ccc(NC(=O)Cc3c(Cl)cccc3C(F)(F)F)cc2S(N)(=O)=O)c1` [Example 215, 2-[2-Chloro-6-(trifluoromethyl)phenyl]-N-[4-(4-cyano-1H-pyrazol-1-yl)-3-sulfamoylphenyl]acetamide], the Emax came to 95% and the IC50 came to 38 nM.
For `COc1cccc(Cl)c1CC(=O)Nc1ccc(-n2cc(C#N)cn2)c(S(N)(=O)=O)c1` [Example 216, 2-(2-Chloro-6-methoxyphenyl)-N-[4-(4-cyano-1H-pyrazol-1-yl)-3-sulfamoyl-phenyl]acetamide], the Emax was determined as 101% and the IC50 came to 96 nM.
For `N#Cc1cnn(-c2ccc(NC(=O)Cc3c(F)cc(F)cc3Cl)cc2S(N)(=O)=O)c1` [Example 217, 2-(2-Chloro-4,6-difluorophenyl)-N-[4-(4-cyano-1H-pyrazol-1-yl)-3-sulfamoyl-phenyl]acetamide], in that order: 84% and 51 nM.
The like results for `N#Cc1cnn(-c2ccc(NC(=O)Cc3ccncc3Cl)cc2S(N)(=O)=O)c1` [Example 218, 2-(3-Chloropyridin-4-yl)-N-[4-(4-cyano-1H-pyrazol*1-yl)-3-sulfamoyl-phenyl]acetamide] were, in that order, 92% and 957 nM.
For `N#Cc1cnn(-c2ccc(NC(=O)Cc3ccc(C(F)F)cc3)cc2S(N)(=O)=O)c1` [Example 219, N-[4-(4-Cyano-1H-pyrazol-1-yl)-3-sulfamoylphenyl]-2-[4-(difluoromethyl)-phenyl]acetamide], the Emax is 65% and the IC50 was found to be 250 nM.
